This is an account of results in paper PMC4973094, “Anti-cholinesterases and memory improving effects of Vietnamese Xylia xylocarpa” (Chemistry Central Journal, 2016).

For orientation: IC50 means the concentration at which inhibition is half-maximal.

Test [1] addresses T1, Acetylcholinesterase (AChE) (EC 3.1.1.7) (Homo sapiens, UniProt P22303).
T1 construct: purchased Sigma-Aldrich Pte Ltd (Nucleos, Singapore)
Briefly: AChE inhibition assay (modified Ellman's method). Format: biochemical. The method, then: (§1) Male Swiss mice (age, 8 weeks; weight, 25–27 g) were purchased from Military Medical University (Hanoi, Vietnam) and housed in a regulated environment (21 ± 2 °C, 12 h light/dark cycle, light period starting at 7 AM) with free access to food and water. Acetylcholinesterase (AChE) (EC 3.1.1.7), butyrylcholinesterase (BChE) (EC 3.1.1.8) and scopolamine hydrobromide (>98 %) were obtained from Sigma-Aldrich Pte Ltd (Nucleos, Singapore). […] Other chemicals were of the highest grade available.
(§2) The inhibitory activities of the ChEs were measured using a modified Ellman’s method. Acetylthiocholine and butyrylthiocholine were used as substrates to examine the inhibitory effect of sample on the AChE and BChE action, respectively. The reaction mixture contained: 140 μL of sodium phosphate buffer (pH 8.0); 20 μL of tested sample solution; and 20 µL of either AChE or BChE solution (5 units/mL), which were mixed and incubated at room temperature for 15 min. The reactions were initiated by the addition of 10 µL of dithiobisnitrobenzoate (DTNB) and 10 μL of either acetylthiocholine or butyrylthiocholine, respectively. The hydrolysis of AChE or BChE was monitored at 412 nm based on the formation of yellow 5-thio-2-nitrobenzoate anion from the reaction of DTNB with thiocholine, which was released by enzymatic hydrolysis of either AChE or BChE. […] The reaction was performed in triplicate and recorded in 96-well microplates using a microplate reader (VersaMax ELISA, USA). Percent inhibition was calculated from (1–S/E) × 100, where E and S were the enzyme activities […] the tested sample, respectively.

Test [2] deals with T2, butyrylcholinesterase (BChE) (EC 3.1.1.8) (Homo sapiens, UniProt P06276).
T2 construct: purchased Sigma-Aldrich Pte Ltd (Nucleos, Singapore)
Briefly: BChE inhibition assay (modified Ellman's method). To be noted: average of 3 replicates ± SD; substrate butyrylthiocholine, pH 8.0. Type of test: biochemical. Here is the method:
as §1, §2

For test [3], the system named is scopolamine-induced memory deficit in mice. The test can be described thus: Y-maze test, scopolamine-induced memory impairment. Type of test: in vivo, male Swiss mice. The conditions noted are these: scopolamine 1.5 mg/kg i.p. alone; versus vehicle-treated control group, P < 0.001.
Test [4] has the same test system. The test can be described thus: Morris water maze test, scopolamine-induced memory dysfunction. Format: in vivo, male Swiss mice. The conditions noted are these: scopolamine 1.5 mg/kg i.p. alone, versus vehicle-treated controls.
Test [5] shares this test system. The test can be described thus: Object recognition test, scopolamine-induced recognition impairment. The conditions noted are these: scopolamine 1.5 mg/kg i.p. alone. Format: in vivo, male Swiss mice.
Where [6] appears, read: days 3 to 7, P < 0.01 and P < 0.001.

The structures appear in SMILES notation. Where a name gives a salt, the structure may show the parent alone. Read-outs that look alike come from different tables or passages of the source. Some results are limits rather than exact numbers.

T2 sequence (P06276 29-602, species assumed): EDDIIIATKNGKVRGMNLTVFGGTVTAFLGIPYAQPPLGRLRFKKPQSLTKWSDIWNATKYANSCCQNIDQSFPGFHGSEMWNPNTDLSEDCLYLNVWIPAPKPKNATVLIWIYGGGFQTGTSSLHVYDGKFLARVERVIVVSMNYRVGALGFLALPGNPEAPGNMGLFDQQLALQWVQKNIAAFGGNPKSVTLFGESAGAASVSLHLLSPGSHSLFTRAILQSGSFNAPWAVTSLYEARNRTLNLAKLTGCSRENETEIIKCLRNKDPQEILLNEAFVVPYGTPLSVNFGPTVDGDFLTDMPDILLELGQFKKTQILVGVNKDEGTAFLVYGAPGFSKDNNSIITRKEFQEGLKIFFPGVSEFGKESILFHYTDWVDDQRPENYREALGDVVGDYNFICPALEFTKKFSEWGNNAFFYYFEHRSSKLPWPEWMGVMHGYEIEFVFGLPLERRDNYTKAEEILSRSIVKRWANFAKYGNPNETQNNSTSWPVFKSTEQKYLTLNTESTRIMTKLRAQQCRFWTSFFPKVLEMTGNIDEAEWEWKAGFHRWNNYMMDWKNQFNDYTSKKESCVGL
T1 sequence (P22303 32-614): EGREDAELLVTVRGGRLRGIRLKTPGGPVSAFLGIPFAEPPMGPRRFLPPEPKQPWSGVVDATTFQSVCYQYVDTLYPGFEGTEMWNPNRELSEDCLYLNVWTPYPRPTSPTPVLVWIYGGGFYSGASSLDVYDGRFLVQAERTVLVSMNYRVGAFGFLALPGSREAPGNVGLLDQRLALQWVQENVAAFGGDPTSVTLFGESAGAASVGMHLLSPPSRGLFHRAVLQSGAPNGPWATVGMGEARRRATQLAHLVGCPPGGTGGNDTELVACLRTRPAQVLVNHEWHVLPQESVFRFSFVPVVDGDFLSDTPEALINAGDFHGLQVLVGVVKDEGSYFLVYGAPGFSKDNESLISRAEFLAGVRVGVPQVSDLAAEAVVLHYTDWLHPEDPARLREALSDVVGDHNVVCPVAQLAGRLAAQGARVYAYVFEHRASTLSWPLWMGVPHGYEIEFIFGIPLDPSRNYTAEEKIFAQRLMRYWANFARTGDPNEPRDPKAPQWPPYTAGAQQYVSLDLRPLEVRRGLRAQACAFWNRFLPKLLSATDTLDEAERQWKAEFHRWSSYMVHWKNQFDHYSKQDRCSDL

Turning to `COC(=O)/C=C/c1ccc(O)c(OC)c1` [Compound 15, methyl ferulate], the IC50 in test [1] is > 100 µM.
Take `Cc1cc(O)c2c(c1)C(=O)c1cccc(O)c1C2=O` [Compound 12, chrysophanol]: the 50% inhibitory concentration (IC50) is > 100 µM in test [2] and 77.3 ± 0.8 µM in test [1].
As for `C=C(C)[C@@H]1CC[C@]2(C(=O)O)CC[C@]3(C)C(CCC4[C@@]5(C)CCC(=O)C(C)(C)C5CC[C@]43C)C12` (some centres unmarked) [Compound 8, betulonic acid], the IC50 in test [2] is > 100 µM; in test [1] (read-out: IC50 AChE, average of 3 replicates ± SD, substrate acetylthiocholine, pH 8.0) it was 94.6 ± 1.5 µM.
As for `C=C(C)[C@@H]1CC[C@]2(C)CC[C@]3(C)[C@H](CC[C@@H]4[C@@]5(C)CC[C@H](O)C(C)(C)[C@@H]5CC[C@]43C)[C@@H]12` [Compound 2, lupeol], the values for the IC50 in test [2] and in test [1] were > 100 µM and 75.7 ± 3.1 µM, respectively.
As for `C=C(C)[C@@H]1CC[C@]2(O)CC[C@]3(C)C(CCC4[C@@]5(C)CC[C@H](O)C(C)(C)C5CC[C@]43C)C12` (stereo partly drawn) [Compound 3, 28-norlup-20(29)-ene-3β,17β-diol], the IC50 in test [2] and in test [1] was > 100 µM throughout.
Take `COc1cc(/C=C/C(=O)O)ccc1O` [Compound 14, ferulic acid]: the IC50 in test [2] and in test [1] was > 100 µM throughout.
Turning to `CN1[C@@H]2C[C@@H](OC(=O)[C@H](CO)c3ccccc3)C[C@H]1[C@@H]1O[C@@H]12` [scopolamine, scopolamine hydrobromide], the “Spontaneous alternation (%) in Y-maze” value in test [3] is “significantly lower”. Further, the “Time in the target quadrant, probe trial day 8, Morris water maze” value in test [4] (P < 0.05) is reported as “significantly reduced”. Besides, in test [4] (setting [6]), the “Escape latencies, training trials, Morris water maze” value is “longer” and the “Swimming distances, training trials, Morris water maze” value is given as “longer”. Also, in test [5], the “Time exploring new versus familiar object, test phase, object recognition test” value was “no total time difference between familiar and new objects”.
With `COc1cc(C(=O)O)cc(OC)c1O` [Compound 21, syringic acid], the IC50 in test [1] is > 100 µM.
In test [1], `C=C(C)[C@@H]1CC[C@]2(C(=O)O)CC[C@]3(C)[C@H](CC[C@@H]4[C@@]5(C)CC[C@H](O)C(C)(C)[C@@H]5CC[C@]43C)[C@@H]12` [Compound 7, betulinic acid] had an IC50 of 62 ± 2.2 µM.
On the same count and under the same terms, under `O=C(O)c1ccc(O)c(O)c1` [Compound 17, protocatechuic acid] stands > 100 µM.
On to `COC1=CC(=O)C=C(OC)C1=O` [Compound 13, 2,6-dimethoxyl-p-benzoquinone], for which the IC50 in test [2] came out at 42.7 ± 7.6 µM; in test [1], 54.4 ± 3.4 µM.
With `COC(=O)C(Cc1ccc(O)cc1)C(=O)OC` [Compound 16, methyl 3-(4-hydroxyphenyl)-2-methoxycarbonylpropionate], the IC50 in test [2] and in test [1] was > 100 µM throughout.
Take `CC1(C)CC[C@]23CC[C@]4(C)C(CCC5[C@@]6(C)CC[C@H](O)C(C)(C)C6CC[C@]54C)C2[C@H]1OC3=O` (stereo partly drawn) [Compound 10, 3β-hydroxy-18α-olean-28,19β-olide]: the IC50 in test [1] is > 100 µM.
`C=C(C)[C@@H]1CC[C@]2(CO)CC[C@]3(C)[C@H](CC[C@@H]4[C@@]5(C)CC[C@H](O)C(C)(C)[C@@H]5CC[C@]43C)[C@@H]12` [Compound 4, betulin]: the IC50 in test [1] was determined as 93.4 ± 2.2 µM.
`COc1cc(C(=O)O)ccc1O` [Compound 18, vanillic acid]: the IC50 in test [2] and in test [1] was > 100 µM each time.
As to `C=C(C)[C@@H]1CC[C@]2(OO)CC[C@]3(C)C(CCC4[C@@]5(C)CC[C@H](O)C(C)(C)C5CC[C@]43C)C12` (stereo partly drawn) [Compound 5, 28-norlup-20(29)-ene-3β-hydroxy-17β-hydroperoxide], the IC50 in test [2] was > 100 µM; in test [1], 83.9 ± 0.6 µM.
Regarding `COc1cc(C=O)ccc1O` [Compound 19, vanillin], the IC50 in test [1] is > 100 µM.
With `CC1(C)CC[C@]23CC[C@]4(C)C(CCC5[C@@]6(C)CC[C@H](OC=O)C(C)(C)C6CC[C@]54C)C2[C@H]1OC3=O` (stereo partly drawn) [Compound 11, 3β-formyloxy-l8α-oleanano-28,19β-lactone], the results for the IC50 in test [2] and in test [1] were > 100 µM and 86.5 ± 0.6 µM, respectively.
`COC(=O)c1cc(O)c(O)c(O)c1` [Compound 20, methyl gallate]: in test [1], the IC50 is > 100 µM.
As to `CC1(C)OC(=O)C23CCC1C2CCC1(C)C3CCC2C3(C)CCC(O)C(C)(C)C3CCC21C` (stereo not drawn) [Compound 1, (3β)-hopan-3-ol-28,22-olide], the IC50 was > 100 µM in test [2] and 79.5 ± 1.1 µM in test [1].
